Laboratory results: US20080025997A1, “Cysteine-rich region of respiratory syncytial virus and methods of use therefor” (priority 2004, published 2008)

Experiments:
[1] = test system: purified human monocytes; assay: Monocyte cytokine production upon exposure to RSV and recombinant RSV viruses
Procedure: (§1) Human PBMC were isolated from leukopaks using Histopaque (Sigma, St. Louis, Mo.). Monocytes were isolated using the Monocyte Isolation Kit II (positive selection for CD3, CD7, CD16, CD19, CD56, CD123, and glycophorin A, MiltenyiBiotec) with Macs LS separation columns. Remaining cells were >90% monocytes by anti-CD14 staining and forward- and side-light scatter analysis using FACScan (Becton-Dickinson, Elmhust, Ill.).
(§2) Purified monocytes were stimulated with LPS (1 μg) or purified proteins F or Glycoprotein (3 μg; kindly provided by V. Randolph, Wyeth Lederle, N.Y.). All rRSV variants were grown in Hep-2 cells and Vero cells as described^29,30, and used at 10^5 pfu multiplicity of infection (MOI)=1] for stimulations. Lysate of Hep-2 cells and Vero cells were used as control stimuli. UV-inactivation was performed as described elsewhere19^5 and lack of virus replication confirmed in cell culture. […] An additional peptide encoding the conserved 13 amino acid region upstream of the GCRR (164-176)^3 was also used in add-back experiments. […] The GCRR and control peptides included biotin-SGSG at the amino termini. The anti-CX3CR1 antibody was kindly provided by P. Murphy, NIAID, NIH and used as described^18. […] Cytokines were measured in supernatant fluids 18 hours after stimulation by immunoassay following manufacturer's instructions (Biosource Europe S. A, Belgium).

[2] = test system: TLR9; assay: CpGDNA-stimulated cytokine production by human monocytes; conditions: co-incubation
Procedure: as §1, §2

[3] = test system: RSV; conditions: Glycoprotein added to F protein during immunization; cited from earlier work
[4] = test system: purified human monocytes; assay: F protein-mediated cytokine production by purified human monocytes; conditions: for effect on F-induced IL-6 production: added to F-treated monocytes
Procedure: as §1
(§3) Purified monocytes were stimulated with LPS (1 μg) or purified proteins F or Glycoprotein (3 μg; kindly provided by V. Randolph, Wyeth Lederle, N.Y.). All rRSV variants were grown in Hep-2 cells and Vero cells as described^29,30, and used at 10^5 pfu multiplicity of infection (MOI)=1] for stimulations. Lysate of Hep-2 cells and Vero cells were used as control stimuli. UV-inactivation was performed as described elsewhere19^5 and lack of virus replication confirmed in cell culture. […] An additional peptide encoding the conserved 13 amino acid region upstream of the GCRR (164-176)^3 was also used in add-back experiments. […] The GCRR and control peptides included biotin-SGSG at the amino termini. The anti-CX3CR1 antibody was kindly provided by P. Murphy, NIAID, NIH and used as described^18. For supplemental experiments, we used peptidoglycan (PGN; Fluka, Sigma) at 10 μg and CpGDNA (GTCGTT; HyCult Biotechnology) at 1 mM. Cytokines were measured in supernatant fluids 18 hours after stimulation by immunoassay following manufacturer's instructions (Biosource Europe S. A, Belgium).

[5] = test system: TLR2; assay: PGN-stimulated cytokine production by human monocytes; conditions: co-incubation
Procedure: as §1, §2

[6] = test system: murine alveolar macrophages; assay: Cytokine production by murine alveolar macrophages incubated with purified proteins and recombinant viruses; type: cell-based; conditions: macrophages from naive mice
Procedure: Alveolar macrophages were obtained by bronchoalveolar lavage (BAL) followed by magentic bead depletion (Militenyi Biotec, Germany). Macrophages were incubated with brefeldin A for six hours, fixed with commercially available fixation and permeabilization reagents, CYTOFIX/CYTOPERM (Becton Dickinson, Elmhust, Ill.), and stained using phycoerythrin (PE)-conjugated anti-IL-6 antibody (Becton Dickinson). Data was analyzed using side and forward scatter plots and FACScan (Becton Dickinson).

[7] = test system: NF-κB; assay: NF-κB nuclear translocation immunoassay in human monocytes; type: cell-based; conditions: 60 min; purified protein or live virus stimulation
Procedure: Human monocytes were stimulated with purified RSV F and/or Glycoprotein (1 μg each) or indicated viruses for 60 minutes. After stimulation nuclear extracts were obtained using a hypotonic lysis buffer (10 mM HEPES (pH 7.9), 1.5 mM MgCl2, 10 mM KCl, 0.5 mM DTT, 0.1% Triton X-100 and protease inhibitors) and an extraction buffer (20 mM HEPES (pH 7.9), 1.5 mM MgCl2, 0.42 M NaCl, 0.5 mM DTT, 0.2 mM EDTA, 1.0% Igepal CA-630, 25% (v/v) glycerol and protease inhibitors). NF-κB subunits p50 and p65 were detected by a modified immunoassay using a double stranded biotinylated oligonucleotide containing the consensus sequence for NF-κB binding (5′-GGGACTTTCC-3′) [SEQ ID NO:______] (Chemicon International, Germany).

[8] = test system: TLR4; assay: Endotoxin (LPS)-mediated cytokine production by human monocytes; conditions: for effect on LPS-induced cytokine production (IL-6, IL-1β): added to LPS-treated monocytes
Procedure: as §1, §3

G^164-176: Glycoprotein peptide encompassing amino acids 164-176, conserved 13 amino acid segment upstream of the GCRR
modulation of IL-6 production by ΔG ([1]; peptide added with ΔG): failed to modulate IL-6 production

Glycoprotein: purified RSV attachment Glycoprotein from subgroup A (A2 strain)
IL-6 response of mG-infected cells after add-back to culture media ([1]; added to mG-infected monocytes): restored to levels similar to those elicited by RSV | cytokine production elicited by TLR9 agonist CpGDNA [2]: inhibited | decrease in production of interferon-γ upon RSV challenge vs immunization with F alone [3]: up to 70 fold | decrease in IL-6 production compared to monocytes incubated with F alone ([4]; F + Glycoprotein, P<0.01): approximately 1.5 log | effect on F-induced IL-1β or IL-10 in supernatant fluids ([4]; not shown): inhibitory effect similar to that observed for Glycoprotein on F-induced IL-6 production | IL-6 production by monocytes incubated with purified protein alone ([4]; supernatant fluids, 18 hours, immunoassay): low | cytokine production elicited by TLR2 agonist PGN [5]: inhibited | cytokine production in murine alveolar macrophages [6]: modulating the innate responses elicited by both purified F and RSV | NF-κB nuclear translocation [7]: decreased

GlycoproteinA peptide (residues 273-288): control peptide within the Glycoprotein mucin-like domain [reference compound]
effect on F-induced IL-6 production [4]: inhibitory effect was not observed

HFEVFNFVPCSICSNNPTCWAICKRI [GCRR peptide]
effect on F-induced IL-6 production [4]: dose-dependent inhibition | effect on IL-10 production of monocytes incubated with LPS [8]: affected production of IL-10 | effect on LPS-induced cytokine production (IL-6, IL-1β) [8]: dose-dependent inhibition of cytokine production

HFEVFNFVPSSISSNNPTSWAISKRI [GSRR, reference compound]
effect on LPS-induced cytokine production (IL-6, IL-1β) [8]: no effect

YFARGPGIHIRKR [HIV V3 loop control peptide, reference compound]
effect on F-induced IL-6 production [4]: inhibitory effect was not observed | effect on LPS-induced cytokine production (IL-6, IL-1β) [8]: no effect

bovine serum albumin [reference compound]
effect on F-induced IL-6 production [4]: no effect
